Reference: patent publication EP0364581A1, “METHOD OF STERILIZING PLANT POLLEN” (VSESOJUZNY NAUCHNO-ISSLEDOVATELSKY INST. SELSKOKHOZYAISTV. …, priority 1988, dated 1989)

Experiments:
[1] = system: Sommerweizens Sorte Rodina; experiment: field test of gametocidal activity (sterilisation of anthers); assay type: in vivo, Sommerweizen; conditions: V. und VI. Periode, 1%ige wäßrige Emulsion, 6 kg/ha; for Prozentsatz des Ansetzens der Körner bei freier Bestäubung: control = 100
From the text: (§1) Die gametozide Aktivität der erfindungsgemäßen Sterilisationsmittel war in Feldversuch in verschiedenen bodenklimatischen Zonen mit Teilstücken von 10 m^2 Größe in drei-- bis viermaliger Wiederholung nachgewiesen. Jedes Sterilisationsmittel wurde mindestens 5 Jahre lang geprüft.
(§2) Die Entwicklung der Perioden der Organogenese wird zytologisch überwacht. Die Behandlung von Pflanzen mit dem Sterilisationsmittel erfolgt am Anfang der fünften Periode der Organogenese nach Kupermann.
(§3) Mit dem Ahrenschieben verwirklicht man die Isolierung von Hauptähren und anderen Stockwerken in Pergamentbeuteln. Bei Weizen und Tritikale werden Einzelisolatoren verwendet. Bei Roggen schließt man je 1 Ähre von 5 bis 7 verschiedenen nebeneinander befindlichen Pflanzen in einen gemeinsamen Isolator ein. Bei Hirse wird jede Rispe getrennt isoliert. Der Sterilitätsprozentsatz (X) für Weizen, Roggen, Tritikale und Hirse wird nach der Formel [formula]
(§4) Samen von unbehandelten Kontrollpflanzen ermittelt.
(§5) Die Kornzahl in nicht isolierten Ähren von Kontrollpflanzen wird bedingt für 100% Ansetzen bei freier Bestäubung angenommen.
(§6) Um zuverlässige Angaben zu erhalten, verwendet man 20 bis 25 Isolatoren jeder Wiederholung für Weizen und Tritikale, 10 bis 15 Isolatoren jeder Wiederholung für Roggen und Hirse.
Pflanzen des Sommerweizens Sorte Rodina werden in der V. und VI. Periode der Organogenese (nach Kupermann) mit einer l%igen wäßrigen Emulsion von Ammoniumsalz der 2-Methyl-3-zyklohexenkarbonsäure, Phthalsäuredihexylester, Phthalsäurediisobutylester behandelt. Die Emulsion enthält 0,01 Masse% Dodezysulfat und 0,1 Masse% C12-C14--Kalziumalkylbenzolsulfonat. Der Verbrauch an Präparat beträgt 6 kg/ha. Als Kontrolle dienen Pflanzen, behandelt mit einem Verdünner ohne Sterilisationsmittel.

[2] = system: tetraploidem Roggen Sorte Ukrainskaya; experiment: as above; assay type: in vivo; conditions: V. Periode, wäßrige Emulsion (concentration not given), 6 kg/ha; for Prozentsatz des Ansetzens der Körner bei freier Bestäubung: control = 100
From the text: as §1, §2, §3, §4, §5, §6
Pflanzen von tetraploidem Roggen Sorte Ukrainskaya werden in der V. Periode der Organogenese (nach Kupermann) mit einer wäßrigen Emulsion von Ammoniumsalz der 2-Methyl-3--zyklohexenkarbonsäure, Phthalsäurediäthylester, Kaliumsalz der Benzoesäure, Phthalsäurediisobutylester behandelt. Die Emulsion enthält 0,01 Masse% Dimethylformamid und 0,1 Masse% C12-C14-Kalziumalkylbenzolsulfonat. Der Verbrauch an Präparat beträgt 6 kg/ha. Als Kontrolle dienen Pflanzen, behandelt mit einem Verdünner ohne Sterilisationsmittel. Die Prüfergebnisse sind in der Tabelle 11 angeführt. […] Periode der Organogenese erhalten.

[3] = system: Sonnenblume Sorte Peredovik; experiment: field test of chemical sterilisation of sunflower pollen; assay type: in vivo; conditions: V. Periode
From the text: as §1, §2
(§7) Zur Kontrolle der chemischen Sterilisation des Sonnenblumenpollens werden für jede Verbindung 45 behandelte Pflanzen jeder Wiederholung benutzt, wobei 15 Pflanzen zwecks Selbsbestäubung isoliert werden, Blutenkörbchen von 15 anderen Pflanzen mit einem Pollengemisch, gesammelt von 20 bis 25 behandelten isolierten Körbchen, bestäubt werden, und 15 Pflanzen für freie Bestäubung gelassen werden, damit das Ansetzen von Achänen mit dem Pollen der Vaterform kontrolliert werden kann.
(§8) Man beurteilt die Pollensterilität von Pflanzen der Sonnenblume nach der Pollenfertilität und -keimfahigkeit, nach den morphologischen Besonderheiten von Spermien und nach der Fähigkeit von Achänen zum Ansetzen bei der Bestäubung der behandelten isolierten Pflanzen mit dem Pollen der unbehandelten väterlischen Form. Die Läbensfähigkeit der Eizelle wird nach der Samenbildung bei behandelten Pflanzen bei freier Bestäubung der väterlichen Form bestimmt.
Pflanzen der Sonnenblume Sorte Peredovik werden in der V. […] Die Emulsion enthält 0,01 Masse% Dimethylsulfoxid und 0,1 Masse% C12-C14-Kalziumalkylbenzolsulfonat. Die Sonnenblume Linie VK-119 werden mit einer 0,2%igen wäßrigen Emulsion von Phthalsäuredibutylester, 0,1%igen wäßrigen Emulsion von Phthalsäurediäthylester, Kaliumsalz der 2-Methyl-3-zyklohexenkarbonsäure, 1%igen wäßrigen Emulsion von Natriumsalz der. 2-Methyl-3-zyklohexen- karbonsäure und 0,01%igen wäßrigen Emulsion von 2-Methyl--3-zyklohexenkarbonsäuremethylester behandelt. Die Emulsion enthält 0,01 Masse% Dimethylformamid und 0,1 Masse% C12-C14--Kalziumalkylbenzolsulfonat.
(§9) Als Kontrolle in allen Fällen dienen Pflanzen, behandelt mit einem Verdünner ohne Sterilisationsmittel.

Sonnenblume Linie VK-119 = experiment: as above; assay type: in vivo; conditions: Linie BK-119
From the text: as §1, §2, §7, §8
Pflanzen der Sonnenblume Sorte Peredovik werden in der V. Periode der Organogenese (nach Kupermann) mit einer 0,5%igen wäßrigen Emulsion von Phthalsäuredibutylester, Phthalsäurediäthylester, Kaliumsalz der 2-Methyl-3-zyklohexenkarbonsäu- re, Natriumsalz der 2-Methyl-3-zyklohexenkarbonsäure sowie mit einer 0,05%igen wäßrigen Emulsion von 2-Methyl-3-zyklo- hexenkarbonsäuremethylester behandelt. Die Emulsion enthält 0,01 Masse% Dimethylsulfoxid und 0,1 Masse% C12-C14-Kalziumalkylbenzolsulfonat. Die Sonnenblume Linie VK-119 werden mit einer 0,2%igen wäßrigen Emulsion von Phthalsäuredibutylester, 0,1%igen wäßrigen Emulsion von Phthalsäurediäthylester, Kaliumsalz der 2-Methyl-3-zyklohexenkarbonsäure, 1%igen wäßrigen Emulsion von Natriumsalz der. 2-Methyl-3-zyklohexen- karbonsäure und 0,01%igen wäßrigen Emulsion von 2-Methyl--3-zyklohexenkarbonsäuremethylester behandelt. Die Emulsion enthält 0,01 Masse% Dimethylformamid und 0,1 Masse% C12-C14--Kalziumalkylbenzolsulfonat.
as §9

[4] = system: Sommerweizens Sorte Botanicheskaya 4; experiment: field test of gametocidal activity (sterilisation of anthers); assay type: in vivo, Sommerweizen; conditions: V. Periode, 1%ige wäßrige Emulsion, 8 kg/ha; for Prozentsatz des Ansetzens der Körner bei freier Bestäubung: control = 100
From the text: as §1, §2, §3, §4, §5, §6
Pflanzen des Sommerweizens Sorte Botanicheskaya 4 werden in der V. Periode der Organogenese (nach kupermann) mit einer l%igen wäßrigen Emulsion von Phthalsäuredibutylester, Phthalsauredipropylester, Natriumsalz der 2-Methyl-3-zyklo- hexenkarbonsäure, 2-Methyl-3-zyklohexenkarbonsäuremethyl- ester behandelt. Die Emulsion enthalt 0,01 Masse% Tetrahydrofuran und 0,1 Masse% C12-C14-Kalziumalkylbenzolsulfonat. Der Verbrauch an Präparat beträgt 8 kg/ha. Als Kontrolle dienen Pflanzen, behandelt mit einem Verdünner ohne Sterilisationsmittel

[5] = system: Tritikale der Sorte PRAG-109; experiment: as above; assay type: in vivo; conditions: V. Periode, 1%ige wäßrige Emulsion, 10 kg/ha
From the text: as §1, §2, §3, §4, §5, §6
Pflanzen Tritikale der Sorte PRAG-109 werden in der V. Periode der Organogenese (nach Kupermann) mit einer 1%igen wäßrigen Emulsion von Phthalsäuredibutylester, Phthalsäurediäthylester, Phthalsäuredihexylester, Phthalsäurediisobutylester, Kaliumsalz der 2-Methyl-3-zyklohexenkarbon- säure, 2-Methyl-3-zyklohexenkarbonsäuremethylester behandelt. Die Emulsion enthält 0,01 Masse% Dimethylsulfoxid und 0,1 Masse% C12C14- Kalziumalkylbenzolsulfonat. Der Verbrauch an Präparat beträgt 10 kg/ha. Als Kontrolle dienen Pflanzen, behandelt mit einem Verdünner ohne Sterilisationsmittel. […]
In allen Fällen dienen als Kontrolle Pflanzen, behandelt mit einem Verdünner ohne Sterilisationsmittel. Die Prüfergebnisse sind in der Tabelle 20 angeführt. […] Periode der Organogenese erhalten.

[6] = Präparat 0,05 Masse%, 0,3 kg/ha
[7] = Präparat 0,01 Masse%, 0,06 kg/ha

CC1C=CCCC1C(=O)O.N (centres unmarked) [Beispiel 34, Ammoniumsalz der 2-Methyl-3-zyklohexenkarbonsäure]
Kornzahl der Ähre bei freier Bestäubung [1]: 30,8
Kornzahl der Ähre im Isolator [1]: 0,0
Prozentsatz der Sterilität [1]: 100,0%
Prozentsatz des Ansetzens der Körner bei freier Bestäubung [1]: 84,1%

CC1C=CCCC1C(=O)O (centres unmarked) [Beispiel 56, Ammoniumsalz der 2-Methyl-3--zyklohexenkarbonsäure]
Kornzahl der Ähre bei freier Bestäubung [2]: 32,1
Kornzahl der Ähre im Isolator [2]: 0,0
Prozentsatz der Sterilität [2]: 100,0%
Prozentsatz des Ansetzens der Körner bei freier Bestäubung [2]: 87,2%

CCOC(=O)c1ccccc1C(=O)OCC [Beispiel 104, Phthalsäurediäthylester]
Ansetzen der Achänen bei freier Bestäubung ([3]; Präparat 1,0 Masse%, 6,0 kg/ha): 80,0
Prozentsatz der Sterilität ([3]; Präparat 1,0 Masse%, 6,0 kg/ha): 100,0%

O=C(O)c1ccccc1 [Beispiel 58, Kaliumsalz der Benzoesäure]
Kornzahl der Ähre bei freier Bestäubung [2]: 35,8
Kornzahl der Ähre im Isolator [2]: 4,2
Prozentsatz der Sterilität [2]: 85,0%
Prozentsatz des Ansetzens der Körner bei freier Bestäubung [2]: 97,3%

CC1C=CCCC1C(=O)O (centres unmarked) [Beispiel 111, Natriumsalz der. 2-Methyl-3-zyklohexen-karbonsäure]
Ansetzen der Achänen bei freier Bestäubung (Sonnenblume Linie VK-119; Präparat 1,0 Masse%, 6,0 kg/ha): 85,0
Prozentsatz der Sterilität (Sonnenblume Linie VK-119; Präparat 1,0 Masse%, 6,0 kg/ha): 100,0%

CCOC(=O)c1ccccc1C(=O)OCC [Beispiel 109, Phthalsäurediäthylester]
Ansetzen der Achänen bei freier Bestäubung (Sonnenblume Linie VK-119; Präparat 0,1 Masse%, 0,6 kg/ha): 82,5
Prozentsatz der Sterilität (Sonnenblume Linie VK-119; Präparat 0,1 Masse%, 0,6 kg/ha): 100,0%

CCCCOC(=O)c1ccccc1C(=O)OCCCC [Beispiel 103, Phthalsäuredibutylester]
Ansetzen der Achänen bei freier Bestäubung ([3]; Präparat 1,0 Masse%, 6,0 kg/ha): 82,3
Prozentsatz der Sterilität ([3]; Präparat 1,0 Masse%, 6,0 kg/ha): 100,0%

CCCCOC(=O)c1ccccc1C(=O)OCCCC [Beispiel 30, Phthalsäuredibutylester]
Kornzahl der Ähre bei freier Bestäubung [4]: 30,6
Kornzahl der Ähre im Isolator [4]: 0,2
Prozentsatz der Sterilität [4]: 99,4%
Prozentsatz des Ansetzens der Körner bei freier Bestäubung [4]: 81,8%
Kornzahl der Ähre bei freier Bestäubung [5]: 66,8
Kornzahl der Ähre im Isolator [5]: 1,0
Prozentsatz der Sterilität [5]: 98,4%
Prozentsatz des Ansetzens der Körner bei freier Bestäubung ([5]; control = 100): 96,8%

CCOC(=O)c1ccccc1C(=O)OCC [Beispiel 57, Phthalsäurediäthylester]
Kornzahl der Ähre bei freier Bestäubung [2]: 30,7
Kornzahl der Ähre im Isolator [2]: 0,0
Prozentsatz der Sterilität [2]: 100,0%
Prozentsatz des Ansetzens der Körner bei freier Bestäubung [2]: 83,4%

CC(C)COC(=O)c1ccccc1C(=O)OCC(C)C [Beispiel 59, Phthalsäurediisobutylester]
Kornzahl der Ähre bei freier Bestäubung [2]: 34,7
Kornzahl der Ähre im Isolator [2]: 0,0
Prozentsatz der Sterilität [2]: 100,0%
Prozentsatz des Ansetzens der Körner bei freier Bestäubung [2]: 94,2%

CCCOC(=O)c1ccccc1C(=O)OCCC [Beispiel 31, Phthalsauredipropylester]
Kornzahl der Ähre bei freier Bestäubung [4]: 31,5
Kornzahl der Ähre im Isolator [4]: 0,5
Prozentsatz der Sterilität [4]: 98,5%
Prozentsatz des Ansetzens der Körner bei freier Bestäubung [4]: 84,2%

COC(=O)C1CCC=CC1C (centres unmarked) [Beispiel 107, 2-Methyl-3-zyklo-hexenkarbonsäuremethylester]
Ansetzen der Achänen bei freier Bestäubung [3, 6]: 83,8
Prozentsatz der Sterilität [3, 6]: 100,0%

COC(=O)C1CCC=CC1C (centres unmarked) [Beispiel 112, 2-Methyl--3-zyklohexenkarbonsäuremethylester]
Ansetzen der Achänen bei freier Bestäubung (Sonnenblume Linie VK-119; [7]): 85,0
Prozentsatz der Sterilität (Sonnenblume Linie VK-119; [7]): 100,0%

CC1C=CCCC1C(=O)O (centres unmarked) [Beispiel 110, Kaliumsalz der 2-Methyl-3-zyklohexenkarbonsäure]
Ansetzen der Achänen bei freier Bestäubung (Sonnenblume Linie VK-119; Präparat 0,1 Masse%, 0,6 kg/ha): 85,5
Prozentsatz der Sterilität (Sonnenblume Linie VK-119; Präparat 0,1 Masse%, 0,6 kg/ha): 100,0%

CCCCOC(=O)c1ccccc1C(=O)OCCCC [Beispiel 108, Phthalsäuredibutylester]
Ansetzen der Achänen bei freier Bestäubung (Sonnenblume Linie VK-119; Präparat 0,2 Masse%, 1,2 kg/ha): 83,5
Prozentsatz der Sterilität (Sonnenblume Linie VK-119; Präparat 0,2 Masse%, 1,2 kg/ha): 100,0%

CCCCCCOC(=O)c1ccccc1C(=O)OCCCCCC [Beispiel 35, Phthalsäuredihexylester]
Kornzahl der Ähre bei freier Bestäubung [1]: 33,6
Kornzahl der Ähre im Isolator [1]: 0,0
Prozentsatz der Sterilität [1]: 100,0%
Prozentsatz des Ansetzens der Körner bei freier Bestäubung [1]: 91,8%

CC1C=CCCC1C(=O)O (centres unmarked) [Beispiel 105, Kaliumsalz der 2-Methyl-3-zyklohexenkarbonsäu-re]
Ansetzen der Achänen bei freier Bestäubung ([3]; Präparat 1,0 Masse%, 6,0 kg/ha): 85,0
Prozentsatz der Sterilität ([3]; Präparat 1,0 Masse%, 6,0 kg/ha): 100,0%

CC1C=CCCC1C(=O)[O-].[Na+] (centres unmarked) [Beispiel 32, Natriumsalz der 2-Methyl-3-zyklo-hexenkarbonsäure]
Kornzahl der Ähre bei freier Bestäubung [4]: 32,9
Kornzahl der Ähre im Isolator [4]: 1,0
Prozentsatz der Sterilität [4]: 97,0%
Prozentsatz des Ansetzens der Körner bei freier Bestäubung [4]: 88,0%

CC1C=CCCC1C(=O)O (centres unmarked) [Beispiel 106, Natriumsalz der 2-Methyl-3-zyklohexenkarbonsäure]
Ansetzen der Achänen bei freier Bestäubung ([3]; Präparat 1,0 Masse%, 6,0 kg/ha): 84,1
Prozentsatz der Sterilität ([3]; Präparat 1,0 Masse%, 6,0 kg/ha): 100,0%

COC(=O)C1CCC=CC1C (centres unmarked) [Beispiel 33, 2-Methyl-3-zyklohexenkarbonsäuremethyl-ester]
Kornzahl der Ähre bei freier Bestäubung [4]: 34,2
Kornzahl der Ähre im Isolator [4]: 0,0
Prozentsatz der Sterilität [4]: 100,0%
Prozentsatz des Ansetzens der Körner bei freier Bestäubung [4]: 91,4%

CC(C)COC(=O)c1ccccc1C(=O)OCC(C)C [Beispiel 36, Phthalsäurediisobutylester]
Kornzahl der Ähre bei freier Bestäubung [1]: 31,7
Kornzahl der Ähre im Isolator [1]: 0,0
Prozentsatz der Sterilität [1]: 100,0%
Prozentsatz des Ansetzens der Körner bei freier Bestäubung [1]: 86,6%
